Counter-ions that a name gives are not always drawn.

The target in the first assay is T1, human renin (Homo sapiens, UniProt P00797).
T1 sequence (P00797 67-406): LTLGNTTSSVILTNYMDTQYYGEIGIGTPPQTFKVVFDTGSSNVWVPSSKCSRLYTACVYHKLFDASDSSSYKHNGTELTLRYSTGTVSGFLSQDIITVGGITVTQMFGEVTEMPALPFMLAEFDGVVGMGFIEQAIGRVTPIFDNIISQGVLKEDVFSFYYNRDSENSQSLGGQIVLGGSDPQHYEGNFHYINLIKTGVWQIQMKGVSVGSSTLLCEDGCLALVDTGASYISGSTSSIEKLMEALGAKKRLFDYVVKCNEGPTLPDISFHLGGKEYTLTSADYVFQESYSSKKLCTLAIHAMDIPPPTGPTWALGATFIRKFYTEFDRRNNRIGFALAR
The assay can be described thus: In vitro test with pure human renin (angiotensin I production from human tetradecapeptide renin substrate, measured by RIA). The format is biochemical.
Conditions: not given
The method, then: In vitro test with pure human renin
The test is carried out in Eppendorf test tubes. The incubation mixture consists of (1) 100 μl of human renin in buffer A (0.1M sodium phosphate solution, pH 7.4, containing 0.1% bovine serum albumin, 0.1% sodium azide and 1 mM ethylenediaminetetraacetic acid), sufficient for a renin activity of 2-3 ng of angiotensin l/ml/hr.; (2) 145 μl of buffer A: (3) 30 μl of 10 mM human tetradecapeptide renin substrate (hTD) in 10 mM hydrochloric acid: (4) […] of dimethyl sulphoxide with or without inhibitor and (5) 10 μl of a 0.03 molar solution of hydroxyquinoline sulphate in water.
The samples are incubated for three hours at 37° C. and, respectively, 4° C. in triplicate. 2×100 μl samples per test tube are used in order to measure the production of angiotensin I via RIA (standard radioimmunoassay; clinical assay solid phase kit). […] The production of angiotensin I is determined by the difference between the test at 37° C, and that at 4° C.
The following controls are carried out:
(a) Incubation of hTD samples without renin and without inhibitor at 37° C. and 4° C. The difference between these two values gives the base value of the angiotensin I production.
(b) Incubation of hTD samples with renin, but without inhibitor at 37° C. and 4° C. The difference between these values gives the maximum value of the angiotensin I production.
In each sample the base value of the angiotensin I production is subtracted from the angiotensin I production which is determined. The difference between the maximum value and the base value gives the value of the maximum substrate hydrolysis (=100%) by renin.
The IC50 values are determined from a linear regression curve from a logit-log plot.
Molecule `c1ccc(COCCCOc2ccc([C@H]3CCNC[C@@H]3OCc3ccc4ccccc4c3)cc2)cc1` (racemic) [M, (3RS,4RS)-4-[4-(3-benzyloxy-propoxy)-phenyl]-3-(naphthalen-2-ylmethoxy)-piperidine] returned an IC50 of 0.008 µM.

Still in this assay, the particulars now being: pure human renin, pH 7.4, three hours at 37° C. (less 4° C.), human tetradecapeptide substrate, angiotensin I by RIA; read-out: IC50 values (concentration of the inhibitor at which the enzymatic activity is inhibited by 50%).
Take `O=C(OC(Cc1ccc2ccccc2c1)[C@H]1CNCC[C@@H]1c1ccc(F)cc1)c1ccccc1` (stereo partly drawn) [K, (SR)- or (RS)-1-[(3RS,4SR)-4-(4-fluoro-phenyl)-piperidin-3-yl]-2-naphthalen-2-yl-ethyl benzoate hydrochloride (1:1)]: the IC50 amounted to 2.6 µM.

As to `CCC[C@@H]1CNC[C@H](OCc2cc(OCc3ccccc3)c3ccccc3c2)[C@H]1c1ccc(F)cc1` (racemic) [Compound I, (3RS,4RS,5SR)-3-(4-benzyloxy-naphthalen-2-ylmethoxy)-4-(4-fluoro-phenyl)-5-propyl-piperidine], the IC50 is 0.317 µM.

On to `O=C1NCCN1C[C@@H]1CNC[C@H](OCc2ccc3ccccc3c2)[C@H]1c1ccc(OCCCOCc2ccccc2)cc1` (relative stereo) [VV], for which the IC50 is 0.002 µM.

On to `Fc1ccc([C@H]2CCNC[C@@H]2OCc2cc(OCc3ccccc3)c3ccccc3c2)cc1` [RR, (3R,4R)3-(4-Benzyloxy-naphthalen-2-ylmethoxy)-4-(4-fluoro-phenyl)-piperidne], for which the IC50 was 0.27 µM.

Take `COc1cc(CO[C@H]2CNCC[C@@H]2c2ccc(OCCCC3CCCCC3)nc2)c(OC)c2ccccc12` (relative stereo) [GG, (3'RS,4'RS)6-(3-Cyclohexyl-propoxy)-3(1,4-dimethoxy-naphthalen-2-ylmethox)-1',2',3',4',5',6hexahydro-[3,4']bipyridine]: the IC50 amounted to 0.001 µM.

With `COc1ccccc1COCCCOc1ccc([C@H]2CCNC[C@@H]2OCc2ccc3ccc(=O)[nH]c3c2)cc1` (racemic) [WW, (3RS,4RS)-4-[4-[3-(2-methoxy-benzyloxy)-propoxy]-phenyl]-3-(2-oxo-1,2-dihydro-quinolin-7-ylmethoxy)-piperidine], the IC50 came to 0.009 µM.

On to `O=C(Cc1ccc2ccccc2c1)[C@H]1CNC[C@@H](COCCN2CCOCC2)[C@@H]1c1ccc(OCCCOCc2ccccc2)cc1` (racemic) [KK, 1-[(3RS,4SR,5SR)-4-[4-(3-benzyloxy-propoxy)-phenyl]-5-(2-morpholin-4-yl-ethoxymethyl)-piperidin-3-yl]-2-naphthalen-2-yl-ethanone], for which the IC50 worked out at 0.012 µM.

For the molecule `c1ccc(-c2cc(COc3ccc([C@H]4CCNC[C@@H]4OCc4ccc5ccccc5c4)cc3)on2)cc1` (racemic) [F, (3RS,4RS)-3-(naphthalen-2-ylmethoxy)-4-[4-(3-phenyl-isoxazol-5-ylmethoxy)-phenyl]-piperidine trifluoroacetate], the IC50 worked out at 0.057 µM.

As to `Fc1ccc([C@@H]2CCNC[C@H]2OCc2cc(OCc3ccccc3)c3ccccc3c2)cc1` [SS, (3S,4S)3-(4-Benzyloxy-naphthalen-2-ylmethoxy)-4-(4-fluoro-phenyl)-piperidne], the IC50 turned out to be 132 µM.

For `COc1cc(CO[C@H]2CNC[C@@H](O)[C@@H]2c2ccc(OCCCOCc3ccccc3)cc2)c(OC)c2ccccc12` (racemic) [S, (3RS,4SR,5SR)-4-[4-(3-benzyloxy-propoxy)-phenyl]-3-(1,4-dimethoxy-naphthalen-2-ylmethoxy)-piperidin-5-ol], the IC50 was 0.002 µM.

The record behind these values is patent US6051712A, “Piperidine derivatives having renin inhibiting activity” (Hoffmann-La Roche Inc., priority 1995, dated 2000).
